According to patent US5880099A, “Inositol polyphosphates and methods of using same” (The Regents of the University of California, priority 1997, dated 1999):
Entries after “also recorded” stand apart in the source; their conditions may differ.

Key:
Type in all cases: cell-based, human
[1] = tested on: T84 colonic epithelial cells (carbachol-mediated inhibition of chloride ion secretion); assay: Reversal of carbachol-mediated inhibition of thapsigargin-stimulated chloride ion secretion in T84 cells; conditions: carbachol 10^-4 M, thapsigargin 1 μM
Description: T84 colonic epithelial cells were treated with D,L-1,2-cyclohexylidene-Ins(3,4,5,6)P4 /AM, 1-Bu-2-Bt-Ins(3,4,5,6)P4 /AM, Bu2 -Ins(3,4,5,6)P4 /AM, 3-Bt-2-Bu-Ins(1,4,5,6)P4 /AM, Bu2 -Ins(1,4,5,6)P4 /AM, 1-Bt-2-Bu-Ins(3,4,5,6)P4 /AM or 3-Bu-2-Bt-Ins(1,4,5,6)P4 /AM and the short circuit current was measured.
One set of cells was preincubated for 30 min with an inositol polyphosphate derivative. The other two sets of cells were preincubated with vehicle, alone. Measurement of Isc was initiated at time 0. At 5 min, carbachol (10^-4 M) was added to one set of cells preincubated with vehicle alone (designated "Carbachol" in FIG. 5) and to the set of cells preincubated with inositol polyphosphate derivatives (designated "Carbachol+D,L-1,2-Cyclohexylidene-Ins(3,4,5,6)P4 /AM" in FIG. 5A). At 30 min, 1 μM thapsigargin was added. Data were collected for n=4 to 6 experiments.

[2] = tested on: colonic epithelial T84 cells (calcium-mediated chloride ion secretion); assay: Inhibition of calcium-mediated chloride ion secretion (Table I summary)
Text: The invention provides compounds that are agonists or antagonists of inositol polyphosphates. Inositol polyphosphate derivatives can function as inositol polyphosphate agonists and antagonists. The effects of compounds of the invention on Ins(3,4,5,6)P4 - and PtdInsP3 -mediated inhibition of calcium-mediated chloride ion secretion are described in the Examples and summarized in Table I.
(§1) Enantiomerically pure 1,2-Bt2 -Ins(3,4,5,6)P4 /AM was synthesized to determine if 1,2-Bt2 -Ins(3,4,5,6)P4 /AM mediates the uncoupling of chloride ion secretion from intracellular calcium concentrations. T84 cells (passages 18-48) were maintained as described previously (Weymer, et al., J. Clin. Invest. 76:1828 (1985)), which is incorporated herein by reference. After 7-10 days of incubation on SNAP-WELLS (Corning Costar; Cambridge, Mass.), monolayers had formed tight junctions. Cell monolayers were preincubated with 100, 200 or 400 μM Bt2 -Ins(3,4,5,6)P4 /AM for 30 min prior to mounting. After an additional 30 min, 0.1 mM histamine was added and chloride ion secretion was monitored. Chloride ion secretion was measured as short circuit current (Isc) across T84 monolayers grown to confluence and mounted in Ussing chambers equipped with voltage clamps (Physiologic Instruments; San Diego, Calif.). Data was acquired and analyzed using "Acquire and Analyze" software (Physiologic Instruments).

[3] = tested on: T84 cells (histamine-stimulated chloride ion secretion); assay: Histamine-stimulated chloride ion secretion (short circuit current) in T84 monolayers; conditions: for effect on histamine-stimulated / calcium-mediated chloride ion secretion (in words): T84 cells; for activity at 200 µM: 200 μM compound alone
Description: as §1, with “T84 cells (passages 18-48) were maintained as described previously (Weymer, et al., J. Clin. Invest. 76:1828 (1985)), which is incorporated herein by reference.” left out
(§2) Initial studies were directed towards understanding structural determinants of Ins(3,4,5,6)P4 responsible for the inhibitory effect on calcium-mediated chloride ion secretion. A series of cell permeable inositol polyphosphate derivatives were synthesized. These derivatives contained either one or two non-hydrolyzable chemical groups on the 1, 2 or 3 position. T84 monolayers were preincubated for 30 minutes with 200 μM of 2-Bt-1-Me-Ins(3,4,5,6)P4 /AM, Me2 -Ins(3,4,5,6)P4 /AM, Me2 -Ins(1,4,5,6)P4 /AM or 2-Bt-3-Me-Ins(1,4,5,6)P4 /AM.
(§3) Following the incubation, cells were mounted in Ussing chambers. Calcium-mediated chloride ion secretion was stimulated with histamine (10^-4 M). Control values were the response to histamine in coincubated monolayers. Data are represented as mean peak ΔIsc ±SEM, expressed as % control for 8 to 10 experiments. Significant differences were identified using the Student's two-tailed t test.

[4] = tested on: T84 cells (carbachol-stimulated chloride ion secretion); assay: Carbachol-stimulated (calcium-mediated) chloride ion secretion in T84 cells; conditions: for effect on carbachol-stimulated / calcium-mediated chloride ion secretion (in words): T84 cells, preincubation
Description: The cell permeable derivative D,L-Bt3 -Ins(1,3,4)P3 /AM was synthesized. Colonic epithelial T84 cells were preincubated for 30 min with 400 μM D,L-Bt3 -Ins(1,3,4)P3 /AM prior to mounting in Ussing chambers and measuring ΔIsc. At 10 min, carbachol (10^-4 M) was added to transiently stimulate calcium-mediated chloride ion secretion. Data were the average of 8 experiments with p<0.04, unpaired, two-sided student's t-test. […]

[5] = tested on: T84 cells (Ins(3,4,5,6)P4 inhibition of histamine-stimulated chloride ion secretion); assay: Reversal of Bt2 -Ins(3,4,5,6)P4 /AM inhibition of histamine-stimulated chloride ion secretion in T84 cells; conditions: for Peak ΔIsc (% Control) after histamine (100 μM): 200 μM antagonist + 200 μM Bt2 Ins (3,4,5,6)P4 /AM, mean ± SEM, 30 min; for reversal of the inhibitory effect of Bt2 -Ins(3,4,5,6)P4 /AM / Ins(3,4,5,6)P4-mediated inhibition (in words): T84 cells, histamine-stimulated
Description: as §2, §3
T84 cells were preincubated with cell permeant inositol polyphosphates as described above to determine if any of the inositol polyphosphate derivatives function as antagonists of Ins(3,4,5,6)P4 inhibition of calcium-mediated chloride ion secretion. Following histamine stimulation, short circuit current was measured. […] The % control shown in FIG. 3 represents ΔIsc over peak Isc in control monolayers stimulated with histamine. However, […]

[6] = Homo sapiens, T84, 0.5 h, mean ± SEM, read-out: Peak ΔIsc (% Control) after histamine (100 μM)

Compound	Mechanism and Inositol Polyphosphate Pathway Affected ([2]; pathway: Ins (3,4,5,6)P4)	Peak ΔIsc (% Control) after histamine (100 μM) [5] [% Control]	reversal of the inhibitory effect of Bt2 -Ins(3,4,5,6)P4 /AM / Ins(3,4,5,6)P4-mediated inhibition (in words) [5]	activity at 200 µM [3, 6] [%]	other results
CCCCO[C@@H]1[C@H](OCCCC)[C@@H](OP(=O)(OCOC(C)=O)OCOC(C)=O)[C@H](OP(=O)(OCOC(C)=O)OCOC(C)=O)[C@@H](OP(=O)(OCOC(C)=O)OCOC(C)=O)[C@@H]1OP(=O)(OCOC(C)=O)OCOC(C)=O [Bu2 -Ins(1,4,5,6)P4 /AM, D-2,3-Di-O-butyl-myo-inositol 1,4,5,6-tetrakisphosphate octakis(acetozymethyl)ester]					reversal of carbachol-mediated inhibition of chloride ion secretion (in words) [1]: enhanced chloride ion secretion; reversal of carbachol-mediated inhibition of chloride ion secretion (in words) ([1]; listed as 2,3-Bu2 -Ins(1,4,5,6)P4 /AM): did not reverse carbachol-mediated inhibition of chloride ion secretion stimulated by thapsigargin
CCCC(=O)O[C@@H]1[C@@H](OC(=O)CCC)[C@H](OP(=O)(OCOC(C)=O)OCOC(C)=O)[C@@H](OP(=O)(OCOC(C)=O)OCOC(C)=O)[C@H](OP(=O)(OCOC(C)=O)OCOC(C)=O)[C@H]1OP(=O)(OCOC(C)=O)OCOC(C)=O (relative stereo) [D,L-Bt2 -scyllo-Ins(3,4,5,6)P4 /AM, D,L-1,2-O-butyryl-scyllo-inositol 3,4,5,6-TKphosphate oct (acetoxymethyl) ester]	Agonist of				effect on histamine-stimulated / calcium-mediated chloride ion secretion (in words) [3]: inhibit calcium-mediated chloride secretion; effect on histamine-stimulated / calcium-mediated chloride ion secretion (in words) ([3]; listed as scyllo derivative of the cell permeable Bt2 -Ins(3,4,5,6)P4 /AM): at least as effective an inhibitor as the myo derivative
di-palmitoyl-D,L-O-butyryl-phosphatidyl inositol 3,4,5-trisphosphate heptakis (acetoxymethyl) ester [diC16 -Bt-PtdInsP3 /AM]					effect on carbachol-stimulated / calcium-mediated chloride ion secretion (in words) [4]: inhibited calcium-mediated chloride ion secretion; inhibition of calcium-mediated chloride ion secretion ([4]; pretreatment of T84 cells, FIG. 7): up to 74%; Mechanism and Inositol Polyphosphate Pathway Affected ([2]; pathway: PtdInsP3): Agonist of
CO[C@@H]1[C@H](OC)[C@H](OP(=O)(OCOC(C)=O)OCOC(C)=O)[C@@H](OP(=O)(OCOC(C)=O)OCOC(C)=O)[C@H](OP(=O)(OCOC(C)=O)OCOC(C)=O)[C@H]1OP(=O)(OCOC(C)=O)OCOC(C)=O [Me2 -Ins(3,4,5,6)P4 /AM, 1,2-di-O-methyl-myo-inositol 3,4,5,6-Tkphosphate oct (acetoxymethyl) ester]	Antagonist of	107.13 ± 10.2	reversed the inhibitory effect of Bt2 -Ins(3,4,5,6)P4 /AM	104 ± 11.1	reversal of the inhibitory effect of Bt2 -Ins(3,4,5,6)P4 /AM / Ins(3,4,5,6)P4-mediated inhibition (in words) ([5]; listed as Me2 -Ins-(3,4,5,6)P4 /AM): reversed Ins(3,4,5,6)P4 -mediated inhibition of chloride ion secretion
CO[C@@H]1[C@H](OC)[C@@H](OP(=O)(OCOC(C)=O)OCOC(C)=O)[C@H](OP(=O)(OCOC(C)=O)OCOC(C)=O)[C@@H](OP(=O)(OCOC(C)=O)OCOC(C)=O)[C@@H]1OP(=O)(OCOC(C)=O)OCOC(C)=O [Me2 -Ins(1,4,5,6)P4 /AM, 2,3-di-O-methyl-myo-inositol 3,4,5,6-TKphosphate oct (acetoxymethyl) ester]		68.4 ± 7.3	had essentially no effect	120 ± 10.6	
CCCC(=O)O[C@@H]1[C@H](OC)[C@@H](OP(=O)(OCOC(C)=O)OCOC(C)=O)[C@H](OP(=O)(OCOC(C)=O)OCOC(C)=O)[C@@H](OP(=O)(OCOC(C)=O)OCOC(C)=O)[C@@H]1OP(=O)(OCOC(C)=O)OCOC(C)=O [2-Bt-3-Me-Ins(1,4,5,6)P4 /AM, 2-O-butyryl-3-O-methyl-myo-inositol 3,4,5,6-TKphosphate oct (acetoxymethyl) ester]		69.7 ± 5.04	had essentially no effect	106 ± 3.7	
CC(=O)OCOP(=O)(OCOC(C)=O)O[C@H]1[C@H](OP(=O)(OCOC(C)=O)OCOC(C)=O)[C@@H](OP(=O)(OCOC(C)=O)OCOC(C)=O)[C@@H](Cl)[C@@H](Cl)[C@@H]1OP(=O)(OCOC(C)=O)OCOC(C)=O (relative stereo) [D,L-1,2-Cl2-dideoxy-Ins(3,4,5,6)P4 /AM, D,L-1,2-dichloro-1,2-dideoxy-myo-inositol 3,4,5,6-TKphosphate oct (acetoxymethyl) ester]					activity at 400 µM ([3]; Homo sapiens, T84, 0.5 h, 400 μM compound alone, mean ± SEM, read-out: Peak ΔIsc (% Control) after histamine (100 μM)): 89.4 ± 7.8%; effect on histamine-stimulated / calcium-mediated chloride ion secretion (in words) [3]: slight inhibitory effect on chloride ion secretion
CCCC(=O)O[C@H]1[C@@H](OC)[C@H](OP(=O)(OCOC(C)=O)OCOC(C)=O)[C@@H](OP(=O)(OCOC(C)=O)OCOC(C)=O)[C@H](OP(=O)(OCOC(C)=O)OCOC(C)=O)[C@H]1OP(=O)(OCOC(C)=O)OCOC(C)=O [2-Bt-1-Me-Ins(3,4,5,6)P4 /AM, 2-O-butyryl-1-O-methyl-myo-inositol 3,4,5,6-TKphosphate oct (acetoxymethyl) ester]	Antagonist of	117.7 ± 10.6	enhanced chloride ion secretion; also recorded: reversed Ins(3,4,5,6)P4 -mediated inhibition of chloride ion secretion; also recorded: reversed the inhibitory effect of Bt2 -Ins(3,4,5,6)P4 /AM	87.3 ± 6.6	
phosphatidylinositol trisphosphate [PtdInsP3, reference compound]					effect on carbachol-stimulated / calcium-mediated chloride ion secretion (in words) [4]: No inhibition of calcium-mediated chloride ion secretion
